Experimental data from patent publication US20230405000A1, “TABLET FOR USE IN TREATING HUNTINGTON'S DISEASE AND METHOD OF MAKING THE SAME” (PTC THERAPEUTICS, INC., priority 2020, published 2023).
Entries after “also recorded” stand apart in the source; their conditions may differ.

Columns and labels:
[1] = Compound 1 in CSF and free plasma of non human primates; assay type: in vivo
Experimental: The two subjects in this cohort received 30 mg daily dose.

human HTT = experiment: Transgenic mouse models of Huntington's disease; assay type: in vivo
Text: An international application published as WO2020/005873 identified a genus of compounds that can be used in the treatment of HD, methods of making the same and pharmaceutical formulations of the same. […] At present, only symptomatic treatments are available. Thus, to date, there is no small molecule therapy available to slow the progression of HD. Accordingly, there is a need for small molecule disease-modifying therapies for HD (i.e. therapeutic options that can slow disease progression).
At the selected doses of 10 mg QD and 20 mg QD, the predicted percent full-length HTT mRNA decreases are within the target range of 30 to 50% reduction from baseline. […] Therefore, the observed preclinical HTT mRNA changes are anticipated to result in similar decreases in HTT protein levels in HD patients. Thus, based upon the totality of the clinical and preclinical safety data to date, and the anticipated reduction in HTT mRNA and protein derived from clinical data and pharmacokinetic-pharmacodynamic modeling, the doses of 10 mg and 20 mg are expected to be safe, well tolerated, and beneficial to subjects with HD.

[2] = Phase 1 study: Compound 1 levels in CSF compared with plasma; assay type: in vivo, human
Text: The concentrations of Compound 1 in plasma and CSF were to be assessed in an open-label design in healthy male and female subjects. A single dose of Compound 1 was to be administered daily for 7 days in 1 cohort of 6 subjects (Cohort 3.1) The dose level of Part 3 was to be determined based upon a review of the safety, tolerability, and PK data of Part 1 and Part 2 of the study. While the MAD dose was to be determined further in development, that dose and schedule was to be applied to this part of the study.
Eligibility was to be assessed during a screening period of up to 28 days. Subjects were to check into the clinic 1 day before dosing (Day −1). On the morning of Day 1 to Day 7, Compound 1 was to be orally administered after an overnight fast of at least 10 hours each day. Serial sampling of CSF and sampling of plasma for drug concentrations was to be performed on Day 7 The exact timing of the CSF and blood samples was to be determined based on the results of Part 1 and Part 2. Subjects were to be released from the clinic on Day 9 after all required study procedures are completed and if medically appropriate. A follow-up safety phone call was to occur 4 weeks (±1 week) after discharge on Day 9.
The CSF sampling enabled the evaluation of pharmacokinetics of Compound 1 in the CSF wherein Compound 1 levels in the CSF were compared with Compound 1 levels in plasma. […] The food effect portion enabled the evaluation of pharmacokinetics of Compound 1 in plasma after administration of a single dose of Compound 1 in healthy subjects.

[3] = Phase 1 study: safety and tolerability in healthy subjects; assay type: in vivo, human
Experimental: Phase 1 Dose Escalation Study was initiated to assess the safety and pharmacokinetics of Compound 1 Oral Tablets (5 mg and 50 mg) compared to placebo in healthy subjects.
(i) To characterize the safety and tolerability of single ascending doses of Compound 1 in healthy subjects; (ii) To characterize the safety and tolerability of Compound 1 administered for 14 or up to 21 days in healthy subjects; (iii) To characterize the pharmacokinetics in plasma and cerebrospinal fluid (CSF) after administration of Compound 1 for 7 days in healthy subjects; (iv) To characterize the food effect on the pharmacokinetics (PK) in plasma of Compound 1 after administration of a single dose of Compound 1 in healthy subjects; and, (v) To characterize the safety and tolerability of Compound 1 administered for up to 28 days in healthy subjects.
The study was monitored by a Safety Review Committee (SRC). […] Safety and tolerability was assessed by the SRC between each cohort prior to ascending from one dose level to the next higher dose level in Part 1 (single ascending dose [SAD]) and fart 2 (multiple ascending dose [MAD]), and prior to initiating Part 3 (CSF), Part 4 (FE), and Part 5.
The following parameters were defined as parameters regarding safety and tolerability: […]
Change from baseline to each scheduled time point up to EOS for vital signs; Change from baseline to each scheduled time point up to EOS for ECG parameters; Change from baseline to each scheduled time point up to EOS for clinical laboratory tests; Changes from baseline in C-SSRS scores (Part 2, Part 3, and Part 5 only); Treatment-emergent adverse events (AEs) up to EOS; Treatment-emergent AEs leading to premature discontinuation of study drug; Treatment-emergent serious adverse events (SAEs) up to FOS; and, Abnormalities in physical examination.

Rat toxicology (NOAEL) = assay type: in vivo; details: male rats
Experimental: The initial dose in the first cohort was ≥ 1/10 of the human equivalent dose (HED) estimated from the NOAEL (no observed adverse effect level) of the (male) rat, which is the most sensitive species, following the FDA guidance on the maximum recommended starting dose (MRSD) and EMA guidelines. The NOAEL of the rat is 6 mg/kg. […] The HED of 0.97 mg/kg was calculated; this scaled in a 70 kg human to 68 mg. Adjusting this dose to 1/10, the dose of the first cohort was 6.8; the actual administered dose will be 5 mg.

HTT mRNA = experiment: Phase 1 study: HTT mRNA in whole blood of healthy volunteers (RT-PCR); assay type: in vivo, human
Text: (i) To explore the effect of single dose of Compound 1 administered on huntingtin (HTT) premRNA splicing in the blood of healthy subjects; (i) To explore the effect of Compound 1 administered for 14 or up to 21 days on HTT pre-m RNA splicing and HTT protein levels in the blood of healthy subjects; (ii) To explore the effect of single dose of Compound 1 administered (with food) on HTT pre-mRNA splicing in the blood of healthy subjects; and, (iii) To explore the effect of Compound 1 administered for up to 28 days on HTT premRNA splicing and HTT protein levels in the blood of healthy subjects.
The single ascending dose (SAD) part of the study was randomized, double-blinded, and placebo controlled in healthy male and female subjects.
The multiple ascending (MAD) part of the study was randomized, double-blind, and placebo controlled in healthy male and female subjects. Up to five regimens are planned to be tested in up to 5 cohorts of 8 subjects each (Cohort 2.1 to 2.5). Within each cohort, 6 subjects were to receive Compound 1 and 2 subjects were to receive placebo. Subjects in Cohort 2.1 and 2.2 were to be dosed for 14 days, subjects in Cohort 2.3 to 2.5 were to be dosed for up to 21 days.
The amount of HTT mRNA was then evaluated by RT-PCR 6 hours after administration of Compound 1 on day 14.
Results from measurement of HTT RNA in the whole blood of human subject administered a placebo or 15 or 30 mg of Compound 1, as described in the Multiple Ascending Dose (MAD) study above are illustrated in FIG. 15. HTT splicing was monitored after the final dose at day 14, calculated as % HTT remaining from baseline (pre-dose day 0).

CC1(C)CC(n2nnc3cc(-c4ccc(-n5nccn5)cc4O)nnc32)CC(C)(C)N1 [Compound 1, 2-[3-(2,2,6,6-tetramethylpiperidin-4-yl)-3H-[1,2,3]triazolo[4,5-c]pyridazin-6-yl]-5-(2H-1,2,3-triazol-2-yl)phenol]
blood brain barrier penetration [1]: crosses the Blood Brain Barrier
relation of HTT pre-mRNA splicing to protein lowering (human HTT; bacterial artificial chromosome transgenic mouse model of HD): strong correlation between levels of HTT pre-mRNA splicing and the degree of protein lowering
reduction of human HTT production in vivo (human HTT; transgenic mouse models of Huntington's disease, results not yet published): effective in reducing human HTT production in vivo
Compound 1 levels in the CSF compared with plasma ([2]; healthy subjects, 30 mg daily dose): equal to or greater than levels observed in plasma; also recorded: at least equivalent or greater than levels observed in the plasma
blood brain barrier penetration ([2]; humans): crossed the blood brain barrier
efflux ([2]; humans): not subject to efflux
overall incidence of AEs ([3]; SAD and MAD portions, versus placebo): comparable between subjects who received placebo and those who received Compound 1
laboratory abnormalities or ECG findings ([3]; any dose, SAD and MAD portions): no clinically significant laboratory abnormalities or electrocardiogram (ECG) findings
safety and tolerability ([3]; healthy subjects, single doses 5 mg to 135 mg, multiple doses 15 mg and 30 mg up to 21 days): well-tolerated with no safety-related findings; also recorded: safe and generally well tolerated
observation that set the NOAEL (Rat toxicology (NOAEL)): germ cell exfoliation in epididymis and testes
lowering of HTT mRNA in whole blood (HTT mRNA; MAD cohort, 15 mg or 30 mg for 14 days, 6 hours after dose on day 14): dose-dependent lowering
time of treatment until HTT mRNA levels reached steady state (HTT mRNA; Multiple Ascending Dose Study): 4 to 5 days
lowering of HTT mRNA in whole blood (HTT mRNA; SAD cohort, 24 hours after single dose of 5, 15, 45, 90 or 135 mg): dose-dependent lowering
